Results as given in article PMC3928003 (Cardiovascular Research, 2013).

Target: T1, 5-lipoxygenase (5-LO) (Homo sapiens, UniProt P09917)
T1 sequence (P09917 1-674): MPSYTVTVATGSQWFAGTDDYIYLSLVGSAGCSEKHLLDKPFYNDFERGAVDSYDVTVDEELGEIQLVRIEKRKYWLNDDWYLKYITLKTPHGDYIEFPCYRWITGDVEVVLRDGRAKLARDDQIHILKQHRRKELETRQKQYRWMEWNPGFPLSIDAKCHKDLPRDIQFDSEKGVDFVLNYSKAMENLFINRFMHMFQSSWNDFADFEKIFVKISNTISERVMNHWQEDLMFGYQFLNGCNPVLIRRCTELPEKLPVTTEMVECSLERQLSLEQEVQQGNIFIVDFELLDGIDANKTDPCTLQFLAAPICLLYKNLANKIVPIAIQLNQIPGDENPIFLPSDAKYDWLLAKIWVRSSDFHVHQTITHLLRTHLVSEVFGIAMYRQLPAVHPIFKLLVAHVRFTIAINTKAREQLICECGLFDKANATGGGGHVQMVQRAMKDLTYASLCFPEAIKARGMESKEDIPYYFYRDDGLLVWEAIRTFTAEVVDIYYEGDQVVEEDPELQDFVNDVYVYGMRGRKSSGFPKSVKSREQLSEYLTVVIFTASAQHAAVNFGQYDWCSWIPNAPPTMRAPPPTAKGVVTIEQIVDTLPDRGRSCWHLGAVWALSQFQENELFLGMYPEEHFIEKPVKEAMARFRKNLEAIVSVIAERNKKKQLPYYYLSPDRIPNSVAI
Test: cell-free 5-LO activity assay with arachidonic acid, products by HPLC
Format: biochemical

Question: For `O=C1Nc2ccccc2/C1=C1/Nc2ccccc2/C1=N\O` [I3MO, Indirubin-3′-monoxime], which IC50 is on record?
Answer: 7.8 to 10 µM
